Assays:
[1] = tested on: infra-renal abdominal aorta; assay: Morphological analysis of intima/media ratios 28 days after in vivo stent implantation; design: species or system New Zealand White rabbits; conditions: 28 days after stent implantation, stent-based local release from microspheres, 0.25% cholesterol diet
Description: Microsphere Preparation. Biodegradable poly(lactic-co-glycolic-acid)-polyethylene glycol (PLGA/PEG) microspheres were prepared as a modification of previously described techniques. […] Additionally, a pH buffer of 7.4 was incorporated to limit local pH changes in order to stabilize incorporated drugs and render the microspheres more biocompatible. During the microsphere manufacturing process, 2.0 mg of the angiogenesis inhibitor angiostatin (Calbiochem, La Jolla, Calif.) in […] phosphate buffered saline was added to the polymer solution. Control microspheres (blank microspheres) containing polymer and buffer without any drug were also prepared. Stents were prepared as above. In Vivo Stent Implantation. Age-matched adult male New Zealand White rabbits weighing 3.8–4.2 kg were used in accordance to NIH and institutional guidelines (n=6 animals per group). Under general anesthesia, an arteriotomy at the femoral artery was performed and a 5 Fr introducing sheath was placed. Under fluoroscopic guidance, aseptically prepared channeled stents filled with blank or angiostatin microspheres were deployed in the infra-renal abdominal aorta. Stents were post-dilated at 8 atm with a 5 mm angioplasty balloon (Jupiter, Cordis, Miami, Fla.) to a final lumen size of 125% above the baseline with care taken to ensure that […] were present within the stent segment. Pre- and post-deployment digital subtraction angiograms were recorded for the blank procedural control and angiostatin treatment groups. The rabbits were fed a 0.25% cholesterol diet after the intervention. Early 7 day follow up (n=3 per group) or late 28 day follow-up (n=3 per group) animals underwent total-body perfusion-fixation as previously described with immediate excision of the aortic segment containing stent. The 7 day aortic specimens were excised longitudinally and stents were removed. The resulting aortic segments were divided into two equal subsegments. One subsegment of each underwent fixation in 10% neutral buffered formalin and embedded in paraffin-for light microscopic and morphologic analysis. The remaining subsegment of each specimen was snap frozen for molecular assay. The 28 days aortic specimens were fixed in 10% neutral buffered formalin and were embedded in PolyBed (Polysciences, Warrington, Pa.) for light microscopic and morphologic analysis. Morphological Analysis of Intima/Media (I/M) Ratios. The seven day analysis consisted of thick (5 μm) cross sections of the aortic wall were obtained from the paraffin-embedded specimens (n=9 sections per group). An elastic von Gieson-Masson trichrome or Elastica van Gieson-Hematoxylin double stain was performed for light microscopic analysis. For the 28 day specimen analysis (n=3 animals per group), each plastic-embedded aorta with stents was cut into five pieces longitudinally equal lengths. These pieces were stained by modified Verhoff elastic staining. Five cross sectional images of the stained aorta were obtained (n=15 sections per group) from one side of plastic pieces. […] Using Image Pro Plus software (Media Cybernetics, Silver Spring, Md.), the cross-sectional area of the intima and the media were determined by blinded observers. The ratio of intima area to media area subsequently tabulated for each, with the results presented as Table 2. Mean, standard error, and significance were determined.

[2] = tested on: infra-renal abdominal aorta; assay: Local plaque stability parameters: macrophage infiltrate and endothelial density (CD31); type: in vivo, New Zealand White rabbits; conditions: 7 days after stent implantation
Description: In Vivo Stent Implantation. Age-matched adult male New Zealand White rabbits weighing 3.8–4.2 kg were used in accordance to NIH and institutional guidelines (n=6 animals per group). Under general anesthesia, an arteriotomy at the femoral artery was performed and a 5 Fr introducing sheath was placed. Under fluoroscopic guidance, aseptically prepared channeled stents filled with blank or angiostatin microspheres were deployed in the infra-renal abdominal aorta. Stents were post-dilated at 8 atm with a 5 mm angioplasty balloon (Jupiter, Cordis, Miami, Fla.) to a final lumen size of 125% above the baseline with care taken to ensure that […] were present within the stent segment. Pre- and post-deployment digital subtraction angiograms were recorded for the blank procedural control and angiostatin treatment groups. […]
Evaluation of Local Plaque Stability Parameters: Macrophage Infiltrate and Endothelial Density. Cross sections at the 7 day time point evaluated above were obtained (two per segment) from each vessel and incubated with a primary monoclonal antibody to rabbit macrophage (clone RAM-11, 1/800 dilution, DAKO, Carpinteria, Calif.). The number of positive cells per cross section was counted by a blinded observer. […] Mean and standard error were tabulated for each group with significance determined as before and p values as reported.

Molecule: CCC[C@H](N[C@@H](C)C(=O)N1[C@H](C(=O)O)C[C@@H]2CCCC[C@@H]21)C(=O)O [ATIIr, perindoprilate, reference compound]
- Intima to media ratio (ratio of intimal area to medial area, mean ± SE) [1]: 1.730 ± 0.090

Molecule: CCNCCN(CC)N(O)N=O [NO, N-Ethyl-2-(1-ethyl-2-hydroxy-2-nitrosohydrazino) ethanamine, reference compound]
- Intima to media ratio (ratio of intimal area to medial area, mean ± SE) [1]: 1.338 ± 0.051

Molecule: CN1CCC[C@H]1c1cccnc1 [Nicotine, S-3-(1-methyl-2-pyrrolidinyl)pyridine, reference compound]
- Intima to media ratio (ratio of intimal area to medial area, mean ± SE) [1]: 1.377 ± 0.060

Molecule: AAT: elastase inhibitor alpha-1-antitrypsin (Calbiochem)
- Intima to media ratio (ratio of intimal area to medial area, mean ± SE) [1]: 1.322 ± 0.060

Molecule: Angiostatin
- Intima to media ratio (ratio of intimal area to medial area, mean ± SE) [1]: 1.610 ± 0.050
- Number of plaque microvessels (CD31) per cross section (mean ± SE) [2]: 0.111 ± 0.111
- Number of cross-sectional macrophages (mean ± SE) ([2]; RAM-11 positive cells per cross section): 34.889 ± 3.948 P = 0.0011

Molecule: FGF: acidic FGF (Calbiochem) loaded with endotoxin-free heparin as a stabilizer
- Intima to media ratio (ratio of intimal area to medial area, mean ± SE) [1]: 1.634 ± 0.051

Molecule: TGFβ1: transforming growth factor β1 (Oncogene Research)
- Intima to media ratio (ratio of intimal area to medial area, mean ± SE) [1]: 1.803 ± 0.053

B1: Fas ligand: pro-apoptotic factor, death domain receptor ligand (Oncogene Research) (protein, UniProt P48023 130-281, looked up)
Tumor necrosis factor ligand …: QIGHPSPPPEKKELRKVAHLTGKSNSRSMPLEWEDTYGIVLLSGVKYKKGGLVINETGLYFVYSKVYFRGQSCNNLPLSHKVYMRNSKYPQDLVMMEGKMMSYCTTGQMWARSSYLGAVFNLTSADHLYVNVSELSLVNFEESQTFFGLYKL
- Intima to media ratio (ratio of intimal area to medial area, mean ± SE) [1]: 1.356 ± 0.053

From patent US7048939B2, “Methods for the inhibition of neointima formation” (The Board of Trustees of the Leland Stanford Junior …, priority 2001, dated 2006)
